From patent US8563542B2 (Cyclacel Limited, priority 2007, dated 2013)
pIC50: −log10 of the molar value.

Experiments:
[1] = target: PLK1 (Homo sapiens, UniProt P53350); assay: PLK1 protein kinase assay (CDC25C phosphorylation, [γ-32P]-ATP); assay type: biochemical; conditions: Table 2, PLK1 IC50; class symbols; read-out: PLK1 IC50
[2] = target: T1, AA (Homo sapiens, UniProt O14965); assay: AA IC50 (Table 1; no method given); assay type: biochemical; conditions: Table 2, AurA IC50; class symbols; read-out: AurA IC50
T1 sequence (O14965 1-403): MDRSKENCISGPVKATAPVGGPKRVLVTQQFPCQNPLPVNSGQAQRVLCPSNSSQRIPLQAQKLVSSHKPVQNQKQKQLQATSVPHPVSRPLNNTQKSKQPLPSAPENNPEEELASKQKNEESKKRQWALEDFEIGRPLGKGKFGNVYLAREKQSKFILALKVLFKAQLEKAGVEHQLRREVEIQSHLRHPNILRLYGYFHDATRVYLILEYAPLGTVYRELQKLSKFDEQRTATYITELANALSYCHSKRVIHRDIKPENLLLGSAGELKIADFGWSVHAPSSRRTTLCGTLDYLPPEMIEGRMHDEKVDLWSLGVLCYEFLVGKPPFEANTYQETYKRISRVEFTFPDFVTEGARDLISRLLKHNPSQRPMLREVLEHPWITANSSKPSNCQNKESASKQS

Chain of PLK1 (P53350 whole entry): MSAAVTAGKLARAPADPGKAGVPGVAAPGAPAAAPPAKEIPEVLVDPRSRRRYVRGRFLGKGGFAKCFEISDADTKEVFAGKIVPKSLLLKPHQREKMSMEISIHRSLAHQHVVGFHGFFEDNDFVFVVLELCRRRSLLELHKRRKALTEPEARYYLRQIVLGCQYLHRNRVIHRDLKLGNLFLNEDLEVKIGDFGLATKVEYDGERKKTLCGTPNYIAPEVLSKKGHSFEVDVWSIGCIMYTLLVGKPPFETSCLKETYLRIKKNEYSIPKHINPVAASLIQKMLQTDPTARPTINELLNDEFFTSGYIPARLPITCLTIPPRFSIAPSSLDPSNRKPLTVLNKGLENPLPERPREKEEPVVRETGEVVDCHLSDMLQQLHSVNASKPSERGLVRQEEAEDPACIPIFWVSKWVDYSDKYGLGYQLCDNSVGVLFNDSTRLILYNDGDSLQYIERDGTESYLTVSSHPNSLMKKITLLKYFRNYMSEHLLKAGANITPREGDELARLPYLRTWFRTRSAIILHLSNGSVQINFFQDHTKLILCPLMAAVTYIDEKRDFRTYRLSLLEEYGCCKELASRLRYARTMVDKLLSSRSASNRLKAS

SMILES | pIC50 [1] | pIC50 [2]
CN1C(=O)CCN(C2CCCC2)c2nc(Nc3ccc(S(=O)(=O)N4CCOCC4)cc3)ncc21 [compound 47, 9-Cyclopentyl-5-methyl-2-[4-(morpholine-4-sulfonyl)-phenylamino]-5,7,8,9-tetrahydro-pyrimido[4,5-b][1,4]diazepin-6-one] | > 5.00 | > 7.00
COc1cccc(N2CCC(=O)N(C)c3cnc(Nc4ccc(C(=O)O)cc4)nc32)c1 [compound 49, 4-[9-(3-Methoxy-phenyl)-5-methyl-6-oxo-6,7,8,9-tetrahydro-5H-pyrimido[4,5-b][1,4]diazepin-2-ylamino]-benzoic acid] | > 5.00 | > 5.00
CN1C(=O)CCN(c2ccccc2F)c2nc(Nc3ccc(C(=O)O)cc3)ncc21 [compound 50, 4-[9-(2-Fluoro-phenyl)-5-methyl-6-oxo-6,7,8,9-tetrahydro-5H-pyrimido[4,5-b][1,4]diazepin-2-ylamino]-benzoic acid] | > 5.00 | > 7.00
CN1C(=O)CCN(C2CCCC2)c2nc(Nc3ccc(S(C)(=O)=O)cc3)ncc21 [compound 55, 9-Cyclopentyl-2-(4-methanesulfonyl-phenylamino)-5-methyl-5,7,8,9-tetrahydro-pyrimido[4,5-b][1,4]diazepin-6-one] | > 5.00 | > 7.00
CN1CCC(NC(=O)c2cccc(Nc3ncc4c(n3)N(C3CCCC3)CCC(=O)N4C)c2)CC1 [compound 57, 3-(9-Cyclopentyl-5-methyl-6-oxo-6,7,8,9-tetrahydro-5H-pyrimido[4,5-b][1,4]diazepin-2-ylamino)-N-(1-methyl-piperidin-4-yl)-benzamide] | > 5.00 | > 6.00
CN1CCC(NS(=O)(=O)c2ccc(Nc3ncc4c(n3)N(C3CCCC3)CCC(=O)N4C)cc2)CC1 [compound 61, 4-(9-Cyclopentyl-5-methyl-6-oxo-6,7,8,9-tetrahydro-5H-pyrimido[4,5-b][1,4]diazepin-2-ylamino)-N-(1-methyl-piperidin-4-yl)-benzenesulfonamide] | > 5.00 | > 6.00
CN1C(=O)CCN(C2CCCC2)c2nc(Nc3ccc(S(N)(=O)=O)cc3)ncc21 [compound 63, 4-(9-Cyclopentyl-5-methyl-6-oxo-6,7,8,9-tetrahydro-5H-pyrimido[4,5-b][1,4]diazepin-2-ylamino)-benzenesulfonamide] | > 5.00 | > 7.00
CN1C(=O)CCN(C2CCCC2)c2nc(Nc3ccccc3)ncc21 [compound 70, 9-Cyclopentyl-5-methyl-2-phenylamino-5,7,8,9-tetrahydro-pyrimido[4,5-b][1,4]diazepin-6-one] | > 5.00 | > 6.00
CN1C(=O)C2(CC2)CN(C2CCCC2)c2nc(Nc3ccc(C(=O)O)cc3)ncc21 [compound 84, 4-(9-Cyclopentyl-5-methyl-6-oxo-6,7,8,9-tetrahydro-5H-spiro[pyrimido[4,5-b][1,4]diazepin-3,1′-cyclopropane]-2-ylamino)-benzoic acid] | > 6.00 | > 5.00
CN(C)C(=O)c1ccc(Nc2ncc3c(n2)N(C2CCCC2)CCC(=O)N3C)cc1 [compound 85, 4-(9-Cyclopentyl-5-methyl-6-oxo-6,7,8,9-tetrahydro-5H-pyrimido[4,5-b][1,4]diazepin-2-ylamino)-N,N-dimethyl-benzamide] | > 5.00 | > 7.00
CC(=O)NCc1ccc(Nc2ncc3c(n2)N(C2CCCC2)CCC(=O)N3C)cc1 [compound 86, N-[4-(9-Cyclopentyl-5-methyl-6-oxo-6,7,8,9-tetrahydro-5H-pyrimido[4,5-b][1,4]diazepin-2-ylamino)-benzyl]-acetamide] | > 5.00 | > 7.00
COc1cc(C(=O)N(C)C)ccc1Nc1ncc2c(n1)N(C1CCCC1)CCC(=O)N2C [compound 88, 4-(9-Cyclopentyl-5-methyl-6-oxo-6,7,8,9-tetrahydro-5H-pyrimido[4,5-b][1,4]diazepin-2-ylamino)-3-methoxy-N,N-dimethyl-benzamide] | > 6.00 | > 5.00
CC(=O)NCc1cccc(Nc2ncc3c(n2)N(C2CCCC2)CCC(=O)N3C)c1 [compound 90, N-[3-(9-Cyclopentyl-5-methyl-6-oxo-6,7,8,9-tetrahydro-5H-pyrimido[4,5-b][1,4]diazepin-2-ylamino)-benzyl]-acetamide] | > 5.00 | > 6.00
CN1C(=O)CCN(C2CCCC2)c2nc(Nc3cccc(CN)c3)ncc21 [compound 91, 2-(3-Aminomethyl-phenylamino)-9-cyclopentyl-5-methyl-5,7,8,9-tetrahydro-pyrimido[4,5-b][1,4]diazepin-6-one] | > 5.00 | > 6.00
CN1C(=O)CCN(C2CCCC2)c2nc(Nc3ccc(S(=O)(=O)NCc4ccccc4)cc3)ncc21 [compound 93, N-Benzyl-4-(9-cyclopentyl-5-methyl-6-oxo-6,7,8,9-tetrahydro-5H-pyrimido[4,5-b][1,4]diazepin-2-ylamino)-benzenesulfonamide] | > 5.00 | > 7.00
CNS(=O)(=O)c1ccc(Nc2ncc3c(n2)N(C2CCCC2)CCC(=O)N3C)cc1 [compound 96, 4-(9-Cyclopentyl-5-methyl-6-oxo-6,7,8,9-tetrahydro-5H-pyrimido[4,5-b][1,4]diazepin-2-ylamino)-N-methyl-benzenesulfonamide] | > 5.00 | > 7.00

Other lines, results leading:

pIC50 [1] | pIC50 [2] | SMILES
> 6.00 | > 6.00 | CN1C(=O)CCN(C2CCCC2)c2nc(Nc3ccc(N4CCOCC4)cc3)ncc21 [compound 51, 9-Cyclopentyl-5-methyl-2-(4-morpholin-4-yl-phenylamino)-5,7,8,9-tetrahydro-pyrimido[4,5-b][1,4]diazepin-6-one]
> 6.00 | > 6.00 | CN1C(=O)CCN(C2CCCC2)c2nc(Nc3cccc(S(N)(=O)=O)c3)ncc21 [compound 53, 3-(9-Cyclopentyl-5-methyl-6-oxo-6,7,8,9-tetrahydro-5H-pyrimido[4,5-b][1,4]diazepin-2-ylamino)-benzenesulfonamide]
> 7.00 | > 7.00 | CN1C(=O)CCN(C2CCCC2)c2nc(Nc3ccc(C(=O)O)cc3)ncc21 [compound 54, 4-(9-Cyclopentyl-5-methyl-6-oxo-6,7,8,9-tetrahydro-5H-pyrimido[4,5-b][1,4]diazepin-2-ylamino)-benzoic acid]
> 6.00 | > 6.00 | CN1C(=O)CCN(C2CCCC2)c2nc(Nc3cccc(C(=O)O)c3)ncc21 [compound 56, 3-(9-Cyclopentyl-5-methyl-6-oxo-6,7,8,9-tetrahydro-5H-pyrimido[4,5-b][1,4]diazepin-2-ylamino)-benzoic acid]
> 6.00 | > 7.00 | COc1cc(Nc2ncc3c(n2)N(C2CCCC2)CCC(=O)N3C)ccc1C(=O)NC1CCN(C)CC1 [compound 58, 4-(9-Cyclopentyl-5-methyl-6-oxo-6,7,8,9-tetrahydro-5H-pyrimido[4,5-b][1,4]diazepin-2-ylamino)-2-methoxy-N-(1-methyl-piperidin-4-yl)-benzamide]
> 6.00 | > 7.00 | CCC1CN(C2CCCC2)c2nc(Nc3ccc4c(c3)CS(=O)(=O)C4)ncc2N(C)C1=O (centres unmarked) [compound 74, 9-Cyclopentyl-2-(2,2-dioxo-2,3-dihydro-1H-2lambda*6*-benzo[c]thiophen-5-ylamino)-7-ethyl-5-methyl-5,7,8,9-tetrahydro-pyrimido[4,5-b][1,4]diazepin-6-one]
> 6.00 | > 7.00 | CC1CN(C2CCCC2)c2nc(Nc3ccc4c(c3)CS(=O)(=O)C4)ncc2N(C)C1=O (centres unmarked) [compound 76, 9-Cyclopentyl-2-(2,2-dioxo-2,3-dihydro-1H-2lambda*6*-benzo[c]thiophen-5-ylamino)-5,7-dimethyl-5,7,8,9-tetrahydro-pyrimido[4,5-b][1,4]diazepin-6-one]
> 6.00 | > 6.00 | CN1C(=O)C(C)(C)CN(C2CCCC2)c2nc(Nc3ccc4c(c3)CS(=O)(=O)C4)ncc21 [compound 77, 9-Cyclopentyl-2-(2,2-dioxo-2,3-dihydro-1H-2lambda*6*-benzo[c]thiophen-5-ylamino)-5,7,7-trimethyl-5,7,8,9-tetrahydro-pyrimido[4,5-b][1,4]diazepin-6-one]
> 6.00 | > 7.00 | CN1C(=O)C2(CC2)CN(C2CCCC2)c2nc(Nc3ccc4c(c3)CS(=O)(=O)C4)ncc21 [compound 78, (9-Cyclopentyl-2-(2,2-dioxo-2,3-dihydro-1H-2lambda*6*-benzo[c]thiophen-5-ylamino)5-methyl-6-oxo-6,7,8,9-tetrahydro-5H-spiro[pyrimido[4,5-b][1,4]diazepin-3,1′-cyclopropane]]
> 6.00 | > 7.00 | CN1C(=O)CCN(C2CCCC2)c2nc(Nc3ccc(C(N)=O)cc3)ncc21 [compound 83, 4-(9-Cyclopentyl-5-methyl-6-oxo-6,7,8,9-tetrahydro-5H-pyrimido[4,5-b][1,4]diazepin-2-ylamino)-benzamide]
> 7.00 | > 5.00 | CNC(=O)c1ccc(Nc2ncc3c(n2)N(C2CCCC2)CCC(=O)N3C)c(OC)c1 [compound 87, 4-(9-Cyclopentyl-5-methyl-6-oxo-6,7,8,9-tetrahydro-5H-pyrimido[4,5-b][1,4]diazepin-2-ylamino)-3-methoxy-N-methyl-benzamide]
> 7.00 | > 5.00 | COc1cc(C(N)=O)ccc1Nc1ncc2c(n1)N(C1CCCC1)CCC(=O)N2C [compound 89, 4-(9-Cyclopentyl-5-methyl-6-oxo-6,7,8,9-tetrahydro-5H-pyrimido[4,5-b][1,4]diazepin-2-ylamino)-3-methoxy-benzamide]
